The record followed here is patent US9963462B2 (priority 2015, dated 2018).

A word on the IC50: it is the concentration needed to halve the response being measured.

This assay relates to BH4 levels in SK-N-BE (2) cells. As to the kind of experiment: SKN-N-BE (2) cellular assay, BH4 levels by LC-MS. Type of assay: cell-based. Conditions: Homo sapiens, SKNBE2, read-out: SK-N-BE(2) IC50, SK-N-BE (2) cells, BH4 levels by LC-MS.

In the case of `Cc1c(C(=O)N2CCN(C(=O)Cc3ccccc3F)CC2)cnn1-c1nn2cccc2c(=O)[nH]1` [Q-1012], the IC50 is 1300 nM.

`Cc1c(C(=O)N2CC3(CCN(C(=O)OC(C)(C)C)CC3)C2)cnn1-c1nc2c(c(=O)[nH]1)CCC2` [Q-0928]: the IC50 stood at 200 nM.

As to `Cc1c(C(=O)N2CCN(C(C#N)c3ccc(F)cc3)CC2)cnn1-c1nn2cccc2c(=O)[nH]1` (centres unmarked) [Q-0963], the IC50 turned out to be 4000 nM.

On to `Cc1c(C(=O)N2CC3CCCC(C2)N3CC(F)(F)F)cnn1-c1nn2cccc2c(=O)[nH]1` [Q-1035], for which the IC50 came to 100 nM.

For `Cc1c(C(=O)N2C[C@@H]3[C@@H](CF)[C@@H]3C2)cnn1-c1nn2cccc2c(=O)[nH]1` [Q-0961], the IC50 is 700 nM.

With `Cc1c(C(=O)N2CCC3CN(C(=O)OC(C)(C)C)CC32)cnn1-c1nn2cccc2c(=O)[nH]1` (centres unmarked) [Q-0914], the IC50 worked out at 600 nM.

Turning to `Cc1c(C(=O)N2CC(N3CC(F)(C(F)(F)F)C3)C2)cnn1-c1nn2cccc2c(=O)[nH]1` [Q-1042], the IC50 is 1000 nM.

For the compound `COC1(C(F)(F)F)CCCN(C(=O)c2cnn(-c3nn4cccc4c(=O)[nH]3)c2C)C1` (centres unmarked) [Q-1006], the IC50 came out at 1400 nM.

`Cc1c(C(=O)N2CC3CC(C(N)=O)CC3C2)cnn1-c1nn2cccc2c(=O)[nH]1` (centres unmarked) [Q-0879]: the concentration for half-maximal inhibition (IC50) was determined as 10000 nM.

On to `Cc1c(C(=O)N2CCC[C@@H](OCC(F)(F)F)C2)cnn1-c1nn2cccc2c(=O)[nH]1` [Q-1014], for which the IC50 was found to be 1400 nM.

For `Cc1c(C(=O)N2CC(OCC(F)F)C2)cnn1-c1nn2cccc2c(=O)[nH]1` [Q-0979], the 50% inhibitory concentration (IC50) came to 1400 nM.

On to `Cc1c(C(=O)N2CCC(C)C(F)C2)cnn1-c1nn2cccc2c(=O)[nH]1` (centres unmarked) [Q-1039], for which the IC50 was 300 nM.

`Cc1c(C(=O)N2CCC(n3cncn3)CC2)cnn1-c1nn2cccc2c(=O)[nH]1` [Q-0919]: the IC50 turned out to be 1700 nM.

Turning to `Cc1c(C(=O)N2CCC(N3CCC(F)(F)C3)C2)cnn1-c1nn2cccc2c(=O)[nH]1` (centres unmarked) [Q-0994], the IC50 turned out to be 3000 nM.

Regarding `Cc1c(C(=O)N2CCN(C(=O)OC(C)(C)C)CC2(C)C)cnn1-c1nn2cccc2c(=O)[nH]1` [Q-0916], the IC50 amounted to 700 nM.

With `Cc1c(C(=O)N2C3CCC2CN(c2ccc(F)cc2)C3)cnn1-c1nn2cccc2c(=O)[nH]1` [Q-0880], the IC50 was 87 nM.

Turning to `Cc1c(C(=O)N2CC(N3CCC(F)CC3)C2)cnn1-c1nn2cccc2c(=O)[nH]1` [Q-1021], the IC50 was determined as 1000 nM.

With `Cc1c(C(=O)N2C3CCC2CC(N(C)C(=O)c2ccccc2)C3)cnn1-c1nn2cccc2c(=O)[nH]1` (centres unmarked) [Q-0970], the half-maximal inhibitory concentration (IC50) came to 400 nM.

In the case of `CCN(C)C1CCN(C(=O)c2cnn(-c3nn4cccc4c(=O)[nH]3)c2C)CC1` [Q-0925], the IC50 was determined as 500 nM.

As to `Cc1c(C(=O)N2CC[C@H]3CN(C(=O)OC(C)(C)C)[C@H]3C2)cnn1-c1nn2cccc2c(=O)[nH]1` [Q-0929], the IC50 was determined as 2000 nM.

Consider `Cc1c(C(=O)N2CCC(C(F)(F)F)C2(C)C)cnn1-c1nn2cccc2c(=O)[nH]1` (centres unmarked) [Q-0959], for which the IC50 came to 1000 nM.

Regarding `Cc1c(C(=O)N2CCC3(CCOC3)C2)cnn1-c1nn2cccc2c(=O)[nH]1` (centres unmarked) [Q-0922], the IC50 is 1000 nM.

Consider `Cc1c(C(=O)N2C3CCCC2CN(Cc2ccccc2)C3)cnn1-c1nn2cccc2c(=O)[nH]1` [Q-0989], for which the IC50 came out at 900 nM.

Regarding `Cc1c(C(=O)N2CCC(OCc3ccc(F)cc3)CC2)cnn1-c1nn2cccc2c(=O)[nH]1` [Q-0893], the IC50 amounted to 300 nM.

Take `Cc1c(C(=O)N2CCC(N3CCOCC3)C2)cnn1-c1nn2cccc2c(=O)[nH]1` (centres unmarked) [Q-0950]: the half-maximal inhibitory concentration (IC50) was found to be 6200 nM.

With `Cc1c(C(=O)N2CC3CC(C#N)CC3C2)cnn1-c1nn2cccc2c(=O)[nH]1` (centres unmarked) [Q-0874], the IC50 was 1100 nM.

On to `Cc1c(C(=O)N2CC3CCCC(C2)N3C(=O)OC(C)(C)C)cnn1-c1nc2c(c(=O)[nH]1)CCC2` [Q-1045], for which the 50% inhibitory concentration (IC50) was found to be 100 nM.

In the case of `Cc1c(C(=O)N2CCC(C3(C#N)CCCC3)CC2)cnn1-c1nn2cccc2c(=O)[nH]1` [Q-0988], the IC50 was found to be 69 nM.

Regarding `Cc1c(C(=O)N2C3CCC2CN(c2ccc(Cl)cc2)C3)cnn1-c1nn2cccc2c(=O)[nH]1` [Q-0894], the IC50 was 100 nM.

On to `Cc1c(C(=O)N2CCC(c3nc(-c4ccccc4)cs3)CC2)cnn1-c1nn2cccc2c(=O)[nH]1` [Q-0939], for which the IC50 came to 83 nM.

For the compound `COC1CCN(C(=O)c2cnn(-c3nn4cccc4c(=O)[nH]3)c2C)CC1` [Q-0976], the IC50 worked out at 1100 nM.

Turning to `Cc1c(C(=O)N2CCCC3C2CCCN3C(=O)OC(C)(C)C)cnn1-c1nn2cccc2c(=O)[nH]1` (centres unmarked) [Q-0912], the IC50 is 900 nM.

For `Cc1c(C(=O)N2CC3(CCCC3)C2)cnn1-c1nc2c(c(=O)[nH]1)CCC2` [Q-0931], the IC50 amounted to 200 nM.

Turning to `Cc1c(C(=O)N2CCC(N3CCC(F)CC3)C2)cnn1-c1nn2cccc2c(=O)[nH]1` (centres unmarked) [Q-1027], the IC50 came out at 3100 nM.

Consider `Cc1c(C(=O)N2CC[C@@H](OCc3cnc(Cl)s3)C2)cnn1-c1nn2cccc2c(=O)[nH]1` [Q-1011], for which the IC50 is 800 nM.

With `Cc1c(C(=O)N2CCN(CC(F)(F)F)C(=O)C2)cnn1-c1nn2cccc2c(=O)[nH]1` [Q-0980], the IC50 came out at 1300 nM.

For `Cc1c(C(=O)N2CC(Cc3ccc(C(F)(F)F)cc3)C2)cnn1-c1nn2cccc2c(=O)[nH]1` [Q-0940], the IC50 worked out at 800 nM.

As for `Cc1c(C(=O)N2CCC(F)(c3ccc(Cl)cc3)CC2)cnn1-c1nn2cccc2c(=O)[nH]1` [Q-0990], the IC50 was 200 nM.

Turning to `Cc1c(C(=O)N2CC[C@@H](C(F)(F)F)C[C@H]2C)cnn1-c1nc2c(c(=O)[nH]1)CCC2` (single isomer, unassigned) [Q-0442], the IC50 came out at 200 nM.

As to `Cc1c(C(=O)N2CCC3(CC2)OCc2ccccc23)cnn1-c1nn2cccc2c(=O)[nH]1` [Q-0909], the IC50 came to 100 nM.

Consider `Cc1c(C(=O)N2CC3CCC2c2ccccc23)cnn1-c1nn2cccc2c(=O)[nH]1` (centres unmarked) [Q-0965], for which the IC50 was determined as 100 nM.

Regarding `Cc1c(C(=O)N2CCC(F)(c3ccc(F)cc3)C2)cnn1-c1nn2cccc2c(=O)[nH]1` (centres unmarked) [Q-0996], the IC50 is 1900 nM.

For `Cc1c(C(=O)N2CC[C@@H](COc3nccc(Cl)n3)C2)cnn1-c1nn2cccc2c(=O)[nH]1` [Q-1043], the IC50 turned out to be 1400 nM.

Regarding `Cc1c(C(=O)N2CCC(n3ccnc3)CC2)cnn1-c1nn2cccc2c(=O)[nH]1` [Q-0942], the 50% inhibitory concentration (IC50) is 9100 nM.

For the compound `Cc1c(C(=O)N2CCC(C)CC2)cnn1-c1nn2cccc2c(=O)[nH]1` [Q-1040], the IC50 worked out at 300 nM.

Regarding `Cc1c(C(=O)N2CCC(N3CC[C@H](F)C3)C2)cnn1-c1nn2cccc2c(=O)[nH]1` (some centres unmarked) [Q-1030], the IC50 amounted to 3100 nM.

With `Cc1c(C(=O)N2CCN(c3nnc(C(F)(F)F)s3)CC2)cnn1-c1nn2cccc2c(=O)[nH]1` [Q-0975], the IC50 was determined as 1300 nM.

Take `Cc1c(C(=O)N2CCN(c3nccs3)CC2)cnn1-c1nn2cccc2c(=O)[nH]1` [Q-0907]: the IC50 came to 400 nM.

For the compound `Cc1c(C(=O)N2CCC3(CC2)CC3c2noc(-c3cccnc3)n2)cnn1-c1nn2cccc2c(=O)[nH]1` (centres unmarked) [Q-0932], the half-inhibitory concentration (IC50) stood at 700 nM.

As for `Cc1c(C(=O)N2CCC3C(CCN3C(=O)OC(C)(C)C)C2)cnn1-c1nn2cccc2c(=O)[nH]1` (centres unmarked) [Q-0865], the IC50 was found to be 100 nM.

Consider `Cc1c(C(=O)N2C3CCC2CN(c2cccc(F)c2)C3)cnn1-c1nn2cccc2c(=O)[nH]1` [Q-0876], for which the IC50 worked out at 88 nM.

Take `Cc1c(C(=O)N2CC(N3CC(F)C3)C2)cnn1-c1nn2cccc2c(=O)[nH]1` [Q-0981]: the IC50 was determined as 1400 nM.

Regarding `Cc1c(C(=O)N2CCC(C(F)(F)F)CC2)cnn1-c1nc2ncsc2c(=O)[nH]1` [Q-0433], the IC50 came to 58000 nM.

`CCC(C#N)C1CCN(C(=O)c2nnn(-c3nn4cccc4c(=O)[nH]3)c2C)CC1` (centres unmarked) [Q-1017]: the IC50 came to 300 nM.

Take `Cc1c(C(=O)N2C3CCC2CN(c2ccccc2)C3)cnn1-c1nn2cccc2c(=O)[nH]1` [Q-0875]: the half-inhibitory concentration (IC50) came to 76 nM.

As to `Cc1c(C(=O)N2CCC(N3CCC[C@H]3C(F)(F)F)CC2)cnn1-c1nn2cccc2c(=O)[nH]1` [Q-1029], the IC50 came to 1000 nM.

Turning to `Cc1c(C(=O)N2CCC(F)(F)C2)cnn1-c1nn2cccc2c(=O)[nH]1` [Q-1050], the IC50 worked out at 1400 nM.

Take `Cc1c(C(=O)N2CCC(N3CCCC(C(F)(F)F)C3)CC2)cnn1-c1nn2cccc2c(=O)[nH]1` (centres unmarked) [Q-1015]: the IC50 amounted to 400 nM.

Take `Cc1c(C(=O)N2C[C@@H]3CCS(=O)(=O)[C@@H]3C2)cnn1-c1nn2cccc2c(=O)[nH]1` [Q-0971]: the concentration for half-maximal inhibition (IC50) turned out to be 7200 nM.

For `Cc1c(C(=O)N2CC3CCCC(C3)C2)cnn1-c1nn2cccc2c(=O)[nH]1` [Q-0934], the IC50 stood at 300 nM.

For `Cc1c(C(=O)N2CCn3c(nnc3C3CC3)C2)cnn1-c1nn2cccc2c(=O)[nH]1` [Q-0868], the 50% inhibitory concentration (IC50) is 10000 nM.

Take `Cc1c(C(=O)N2CCCC(C)(C#N)C2)cnn1-c1nn2cccc2c(=O)[nH]1` (centres unmarked) [Q-0923]: the 50% inhibitory concentration (IC50) amounted to 1300 nM.

Consider `Cc1c(C(=O)N2C3CCC2CN(c2ccc(C(F)(F)F)cc2)C3)cnn1-c1nn2cccc2c(=O)[nH]1` [Q-0870], for which the 50% inhibitory concentration (IC50) was 300 nM.

With `Cc1c(C(=O)N2CCC(O)(Cc3ccc(F)cc3)C2)cnn1-c1nn2cccc2c(=O)[nH]1` (centres unmarked) [Q-1028], the IC50 turned out to be 1100 nM.

Take `Cc1c(C(=O)N2CC(CN(C)C(=O)OC(C)(C)C)C2)cnn1-c1nn2cccc2c(=O)[nH]1` [Q-0861]: the half-inhibitory concentration (IC50) is 400 nM.

On to `Cc1c(C(=O)N2CCN(CC(F)(F)F)CC2(C)C)cnn1-c1nn2cccc2c(=O)[nH]1` [Q-0949, 2-(4-(2,2-dimethyl-4-(2,2,2-trifluoroethyl)piperazine-1-carbonyl)-5-methyl-1H-pyrazol-1-yl)pyrrolo[1,2-f][1,2,4]triazin-4(3H)-one], for which the IC50 worked out at 200 nM.

In the case of `Cc1c(C(=O)N2CC3(CN(CC(F)F)C3)C2)cnn1-c1nn2cccc2c(=O)[nH]1` [Q-0945], the IC50 was found to be 1000 nM.

With `Cc1c(C(=O)N2CCn3cc(C(F)(F)F)nc3C2)cnn1-c1nn2cccc2c(=O)[nH]1` [Q-0871], the half-maximal inhibitory concentration (IC50) amounted to 4000 nM.

In the case of `Cc1c(C(=O)N2CC(CC(F)(F)F)C2)cnn1-c1nn2cccc2c(=O)[nH]1` [Q-0947], the IC50 is 1000 nM.

`CCCC(C#N)C1CCN(C(=O)c2cnn(-c3nn4cccc4c(=O)[nH]3)c2C)CC1` (centres unmarked) [Q-0858]: the IC50 was 44 nM.

In the case of `Cc1c(C(=O)N2CCN3C(=O)CC[C@@H]3C2)cnn1-c1nn2cccc2c(=O)[nH]1` [Q-0862], the 50% inhibitory concentration (IC50) is 10000 nM.
